From PMC9127750, “Structure-based design of CDC42 effector interaction inhibitors for the treatment of cancer” (Cell reports, 2022)
Values joined by “and” are separate entries in the source; they are usually repeats but may differ in a detail not shown here. Identical values can stand only once.

System: WM3248 melanoma cells, 486 antibodies
Test: Reverse phase protein arrays (RPPA)
Type: cell-based, Human
Excerpt: Pellets were snap frozen in liquid nitrogen and shipped to MD Anderson Cancer Center core RPPA facility for RPPA analysis (Table S5). Three biological replicates for each sample were generated.
Nomenclatures on the RPPA heatmaps: name_of_antibody.species_of_antibody.status_of_antibody. V - antibody validated; C - validation of antibody in progress; Q - antibody nonspecific; E – under evaluation; antibodies raised in M - mouse, G - goat, R - rabbit, or T - rat.

[1] = Norm_20, replicates 1-3 and Average, relative to Norm_0

CN(C)c1cccc(Nc2cc(-c3ccccc3)nc(C3CCNCC3)n2)c1 [ARN22089, N1,N1-dimethyl-N3-(6-phenyl-2-(piperidin-4-yl)pyrimidin-4-yl)benzene-1,3-diamine]
Bax.R.V RPPA signal, normalized [1]: 1.116 and 1.001 and 1.099
Bcl2.R.C RPPA signal, normalized [1]: 1.192 and 1.263 and 1.147 and 1.201
Bcl.xL.R.V RPPA signal, normalized [1]: 1.010 and 1.055 and 1.349 and 1.138
Beclin.R.C RPPA signal, normalized [1]: 0.940 and 1.021 and 1.001
BiP.GRP78.M.C RPPA signal, normalized [1]: 0.957 and 0.997 and 0.968
Bid.R.C RPPA signal, normalized [1]: 1.024 and 0.874 and 0.875 and 0.925
Bim.R.V RPPA signal, normalized [1]: 1.050 and 0.910 and 0.906 and 0.955
X4E.BP1.R.V RPPA signal, normalized [1]: 0.857 and 0.934 and 2.342 and 1.377
X4E.BP1_pS65.R.V RPPA signal, normalized [1]: 0.791 and 0.833 and 1.063 and 0.895
X4E.BP1_pT37_T46.R.V RPPA signal, normalized [1]: 0.867 and 0.753 and 1.126 and 0.915
X14.3.3.zeta.R.V RPPA signal, normalized [1]: 0.941 and 0.920 and 0.970 and 0.944
X14.3.3βR.V RPPA signal, normalized [1]: 1.101 and 1.160 and 0.888 and 1.050
X14.3.3εM.C RPPA signal, normalized [1]: 0.855 and 0.892 and 1.081 and 0.943
X53BP1.R.V RPPA signal, normalized [1]: 1.138 and 0.986 and 1.047 and 1.057
b.Actin.R.C RPPA signal, normalized [1]: 1.058 and 1.299 and 1.110 and 1.155
b.Catenin.R.V RPPA signal, normalized [1]: 0.975 and 0.858 and 1.031 and 0.954
b.Catenin_pT41_S45.R.V RPPA signal, normalized [1]: 1.047 and 1.076
c.Abl.R.V RPPA signal, normalized [1]: 1.061 and 1.026 and 1.186
c.Abl_pY412.R.C RPPA signal, normalized [1]: 1.034 and 0.935 and 1.009 and 0.993
c.IAP2.R.C RPPA signal, normalized [1]: 1.049 and 1.145 and 1.104 and 1.100
C.Raf.R.C normalized signal (Norm_20 Average): 0.952
CA9.R.C normalized signal (Norm_20 Average): 0.890
CD2.M.C normalized signal (Norm_20 Average): 0.871
CD4.R.V normalized signal (Norm_20 Average): 1.005
CD5.M.C normalized signal (Norm_20 Average): 0.944
CD20.R.C normalized signal (Norm_20 Average): 1.356
CD26.R.V normalized signal (Norm_20 Average): 1.108
CD29.M.V normalized signal (Norm_20 Average): 0.892
CD31.M.V normalized signal (Norm_20 Average): 0.916
CD44.R.C normalized signal (Norm_20 Average): 1.001
CD45.M.V normalized signal (Norm_20 Average): 0.902
CD49b.M.V normalized signal (Norm_20 Average): 1.012
CD68.M.C normalized signal (Norm_20 Average): 0.968
CD74.M.V normalized signal (Norm_20 Average): 0.926
CD134.R.V normalized signal (Norm_20 Average): 0.946
CD171.M.V normalized signal (Norm_20 Average): 0.712
CDK1_pT14.R.C normalized signal (Norm_20 Average): 1.008
CDK9.R.V normalized signal (Norm_20 Average): 0.932
CDKN2A.R.C normalized signal (Norm_20 Average): 0.921
CDT1.R.V normalized signal (Norm_20 Average): 0.857
CENP.A.R.V normalized signal (Norm_20 Average): 1.525
CRABP1.R.C normalized signal (Norm_20 Average): 0.968
CRABP2.R.V normalized signal (Norm_20 Average): 0.841
CREB_pS133.R.C normalized signal (Norm_20 Average): 1.190
CSK.R.C normalized signal (Norm_20 Average): 0.923
Calnexin.R.V normalized signal (Norm_20 Average): 0.926
Caspase.3.cleaved.R.C normalized signal (Norm_20 Average): 1.013
Caspase.7.cleaved..R.C normalized signal (Norm_20 Average): 1.013
Caspase.8.M.Q normalized signal (Norm_20 Average): 0.961
Caspase.8.cleaved.R.C normalized signal (Norm_20 Average): 0.957
Caveolin.1.R.V normalized signal (Norm_20 Average): 0.866
Cdc6.R.V normalized signal (Norm_20 Average): 0.851
Cdc42.R.C normalized signal (Norm_20 Average): 0.996
Chk1.M.C normalized signal (Norm_20 Average): 0.786
Chk1_pS345.R.C normalized signal (Norm_20 Average): 1.170
Chk2.M.V normalized signal (Norm_20 Average): 0.875
Chk2_pT68.R.C normalized signal (Norm_20 Average): 1.128
Claudin.7.R.V normalized signal (Norm_20 Average): 1.226
Collagen.VI.R.V normalized signal (Norm_20 Average): 1.013
Complex.II.Subunit.M.V normalized signal (Norm_20 Average): 1.002
Coup.TFII.R.C normalized signal (Norm_20 Average): 1.005
Cox2.R.C normalized signal (Norm_20 Average): 1.349
Cox.IV.R.V normalized signal (Norm_20 Average): 0.992
Creb.R.C normalized signal (Norm_20 Average): 1.053
CtIP.R.V normalized signal (Norm_20 Average): 0.962
Cyclin.B1.R.V normalized signal (Norm_20 Average): 0.968
Cyclin.D1.R.C normalized signal (Norm_20 Average): 0.986
Cyclin.D3.M.V normalized signal (Norm_20 Average): 0.749
Cyclin.E1.R.V normalized signal (Norm_20 Average): 0.902
Cyclophilin.F.M.V normalized signal (Norm_20 Average): 0.934
D.a.Tubulin.R.V normalized signal (Norm_20 Average): 0.990
DAPK1_pS308.M.C normalized signal (Norm_20 Average): 2.076
DAPK2.R.C normalized signal (Norm_20 Average): 1.013
DDB.1.R.V normalized signal (Norm_20 Average): 0.922
DDR1.R.V normalized signal (Norm_20 Average): 0.996
DDR1_pY513.R.C normalized signal (Norm_20 Average): 1.082
DJ1.R.V normalized signal (Norm_20 Average): 0.929
DM.Histone.H3.R.V normalized signal (Norm_20 Average): 1.963
DM.K9.Histone.H3.M.V normalized signal (Norm_20 Average): 1.372
DNA.Ligase.IV.R.C normalized signal (Norm_20 Average): 0.924
DNA_POLG.R.V normalized signal (Norm_20 Average): 1.084
c.Jun_pS73.R.V normalized signal (Norm_20 Average): 0.769
c.Kit.R.V normalized signal (Norm_20 Average): 1.333
c.Met_pY1234_Y1235.R.V normalized signal (Norm_20 Average): 1.008
c.Myc.R.C normalized signal (Norm_20 Average): 0.930
cGAS.R.V normalized signal (Norm_20 Average): 0.995
cdc2_pY15.R.C normalized signal (Norm_20 Average): 0.940
cdc25C.R.V normalized signal (Norm_20 Average): 0.832
C.Raf.R.C normalized signal (Norm_20 replicates): 0.926 and 0.909 and 1.022
C.Raf_pS338.R.V normalized signal (Norm_20 replicates): 1.047 and 0.977 and 1.202
CA9.R.C normalized signal (Norm_20 replicates): 0.834 and 0.857 and 0.980
CD2.M.C normalized signal (Norm_20 replicates): 0.856 and 0.882 and 0.876
CD4.R.V normalized signal (Norm_20 replicates): 1.114 and 0.892 and 1.008
CD5.M.C normalized signal (Norm_20 replicates): 0.915 and 0.968 and 0.950
CD20.R.C normalized signal (Norm_20 replicates): 1.024 and 1.514 and 1.531
CD26.R.V normalized signal (Norm_20 replicates): 1.033 and 0.940 and 1.351
CD29.M.V normalized signal (Norm_20 replicates): 0.857 and 0.910 and 0.908
CD31.M.V normalized signal (Norm_20 replicates): 0.884 and 0.896
CD38.R.C normalized signal (Norm_20 replicates): 1.108 and 1.163
CD44.R.C normalized signal (Norm_20 replicates): 0.959 and 1.005
CD45.M.V normalized signal (Norm_20 replicates): 0.835 and 0.934
CD49b.M.V normalized signal (Norm_20 replicates): 0.952 and 1.078 and 1.005
CD68.M.C normalized signal (Norm_20 replicates): 0.919 and 0.910
CD74.M.V normalized signal (Norm_20 replicates): 0.908 and 0.967 and 0.901
CD134.R.V normalized signal (Norm_20 replicates): 0.960 and 0.966
CD171.M.V normalized signal (Norm_20 replicates): 0.652 and 0.837 and 0.648
CDK1_pT14.R.C normalized signal (Norm_20 replicates): 1.055 and 0.710 and 1.260
CDK9.R.V normalized signal (Norm_20 replicates): 0.996 and 0.856 and 0.946
CDKN2A.R.C normalized signal (Norm_20 replicates): 0.854 and 0.981 and 0.927
CDT1.R.V normalized signal (Norm_20 replicates): 0.785 and 0.945 and 0.841
CENP.A.R.V normalized signal (Norm_20 replicates): 0.821 and 2.735 and 1.018
CHD1L.R.V normalized signal (Norm_20 replicates): 0.858 and 0.933 and 1.056
CIITA.R.C normalized signal (Norm_20 replicates): 0.943 and 1.115 and 1.149
COG3.R.V normalized signal (Norm_20 replicates): 0.982 and 0.987 and 1.164
CRABP1.R.C normalized signal (Norm_20 replicates): 0.873 and 1.063
CRABP2.R.V normalized signal (Norm_20 replicates): 0.668 and 1.048 and 0.808
CREB_pS133.R.C normalized signal (Norm_20 replicates): 0.993 and 1.115 and 1.463
CSK.R.C normalized signal (Norm_20 replicates): 0.890 and 0.821 and 1.057
Calnexin.R.V normalized signal (Norm_20 replicates): 0.950 and 0.927 and 0.903
Caspase.3.cleaved.R.C normalized signal (Norm_20 replicates): 1.050 and 1.052 and 0.937
Caspase.7.cleaved..R.C normalized signal (Norm_20 replicates): 1.145 and 0.913 and 0.981
Caspase.8.M.Q normalized signal (Norm_20 replicates): 0.921 and 1.010 and 0.953
Caspase.8.cleaved.R.C normalized signal (Norm_20 replicates): 0.981 and 0.904 and 0.986
Caveolin.1.R.V normalized signal (Norm_20 replicates): 0.827 and 0.896 and 0.874
Cdc6.R.V normalized signal (Norm_20 replicates): 1.058 and 0.691 and 0.803
Cdc42.R.C normalized signal (Norm_20 replicates): 0.945 and 1.025 and 1.019
Chk1.M.C normalized signal (Norm_20 replicates): 0.656 and 0.821 and 0.882
Chk1_pS296.R.V normalized signal (Norm_20 replicates): 0.970 and 0.828 and 1.051
Chk1_pS345.R.C normalized signal (Norm_20 replicates): 1.119 and 1.167 and 1.225
Chk2.M.V normalized signal (Norm_20 replicates): 0.658 and 0.864 and 1.104
Chk2_pT68.R.C normalized signal (Norm_20 replicates): 0.997 and 1.290 and 1.096
Claudin.7.R.V normalized signal (Norm_20 replicates): 0.881 and 1.747 and 1.050
Collagen.VI.R.V normalized signal (Norm_20 replicates): 1.201 and 0.989 and 0.848
Complex.II.Subunit.M.V normalized signal (Norm_20 replicates): 0.922 and 0.878 and 1.206
Connexin.43.R.C normalized signal (Norm_20 replicates): 0.931 and 1.019
Coup.TFII.R.C normalized signal (Norm_20 replicates): 1.109 and 0.920 and 0.985
Cox2.R.C normalized signal (Norm_20 replicates): 1.356 and 1.253 and 1.438
Cox.IV.R.V normalized signal (Norm_20 replicates): 1.130 and 0.864 and 0.981
Creb.R.C normalized signal (Norm_20 replicates): 0.982 and 1.104
CtIP.R.V normalized signal (Norm_20 replicates): 0.991 and 0.925 and 0.970
Cyclin.B1.R.V normalized signal (Norm_20 replicates): 0.884 and 0.735 and 1.285
Cyclin.D1.R.C normalized signal (Norm_20 replicates): 0.990 and 1.056 and 0.913
Cyclin.D3.M.V normalized signal (Norm_20 replicates): 0.612 and 0.725 and 0.909
Cyclin.E1.R.V normalized signal (Norm_20 replicates): 0.878 and 0.955 and 0.872
Cyclophilin.F.M.V normalized signal (Norm_20 replicates): 0.906 and 0.884 and 1.010
D.a.Tubulin.R.V normalized signal (Norm_20 replicates): 1.030 and 0.992
DAPK1_pS308.M.C normalized signal (Norm_20 replicates): 1.481 and 2.154 and 2.593
DAPK2.R.C normalized signal (Norm_20 replicates): 0.964 and 1.008
DDB.1.R.V normalized signal (Norm_20 replicates): 1.193 and 0.735 and 0.837
DDR1.R.V normalized signal (Norm_20 replicates): 0.952 and 1.004 and 1.031
DDR1_pY513.R.C normalized signal (Norm_20 replicates): 1.061 and 1.271 and 0.913
DJ1.R.V normalized signal (Norm_20 replicates): 1.006 and 0.828 and 0.954
DM.Histone.H3.R.V normalized signal (Norm_20 replicates): 3.935 and 0.881
DM.K9.Histone.H3.M.V normalized signal (Norm_20 replicates): 2.137 and 0.933
DNA.Ligase.IV.R.C normalized signal (Norm_20 replicates): 0.747 and 1.076
DNA_POLG.R.V normalized signal (Norm_20 replicates): 1.105 and 1.113 and 1.034
c.Jun_pS73.R.V normalized signal (Norm_20 replicates): 0.847 and 0.671 and 0.789
c.Kit.R.V normalized signal (Norm_20 replicates): 1.304 and 1.335 and 1.361
c.Met_pY1234_Y1235.R.V normalized signal (Norm_20 replicates): 1.007 and 1.003 and 1.014
c.Myc.R.C normalized signal (Norm_20 replicates): 0.879 and 0.953 and 0.957
cGAS.R.V normalized signal (Norm_20 replicates): 0.887 and 1.171 and 0.926
cdc2_pY15.R.C normalized signal (Norm_20 replicates): 0.878 and 0.795 and 1.146
cdc25C.R.V normalized signal (Norm_20 replicates): 0.758 and 0.751 and 0.986
